Source: US20230321122A1, “ACTIVE AGENT MODULATING THE ACTIVITY OF AN ION CHANNEL FOR USE IN HAIR GROWTH REGULATION” (CUTANEON - Skin & Hair Innovations GmbH, priority 2020, published 2023)

Legend:
human hair follicles [1] = experiment: Quantitative PCR gene expression in compound-treated human hair follicles; type: cell-based; conditions: 6 hours, vs vehicle
Description: Total RNA was isolated using PICOPURE® RNA Isolation Kit (Applied BioSystems) according to the manufacturer's protocol. After isolation, 100 ng of total RNA was reverse-transcribed into cDNA using a TETRO® cDNA synthesis kit (Bioline). Quantitative-PCR was performed using the StepOne Plus real time PCR system (Applied Biosystems) using TAQMAN® fast advanced master mix and TAQMAN® probes for LEF1, IGF1, TGFB2 AND SFRP1 (Applied Biosystems). The amount of the aforementioned transcripts was normalized to the expression of reference gene (GAPDH) using the ΔΔCt method. Results were performed in triplicate for each experiment.
For gene expression analysis, human hair follicles were microdissected as above and treated with 2-Hep (12.5 uM) for 6 hours. Following the treatment, total RNA was isolated and processed for cDNA synthesis as above. Quantitate PCR was performed using TAQMAN® assay with probes for TGFB2 and AXIN2 (Applied Biosystems).
For gene expression analysis, human hair follicles were microdissected as above and treated with TPPO (150 uM) for 6 hours. Following the treatment, total RNA was isolated and processed for cDNA synthesis as above. Quantitate PCR was performed using TAQMAN® assay with probes for IGF1, FGF7 and TGFB2 (Applied Biosystems).

human hair follicles [2] = experiment: Human hair follicle organ culture, hair cycle staging; type: cell-based; conditions: for hair cycle stage of hair follicles (anagen) vs vehicle: 12.5 (unit not given), day 3 and day 6, FIGS. 8, 9
Description: Human anagen hair follicles were isolated from the skin of males undergoing hair transplantation with written informed consent. Microdissected hair follicles were amputated at the level of dermal-subcutaneous junction and equilibrated in Williams' E medium (WEM) (Life Technologies) supplemented with 2 mM L-glutamine (Life Technologies), 10 ng/ml hydrocortisone, 10 μg/ml insulin, and antibiotics (all from Sigma-Aldrich). After 24 hours, growing undamaged anagen hair follicles were selected for treatment with DMP Human hair follicles were cultured in presence of DMP (12.5 The culture medium was changed every two days with addition of DMP. Hair follicles were photographed and percentage of hair follicles at different stages of hair cycle were calculated at day 3 and day 6 of the treatment and compared to vehicle.
(§1) Human anagen hair follicles were isolated from the skin of males undergoing hair transplantation with written informed consent. […] After 24 hours, growing undamaged anagen hair follicles were selected for treatment with 2-Hep (12.5 The culture medium was changed every two days with addition of 2-Hep. Hair follicles were photographed and percentage of hair follicles at different stages of hair cycle were calculated at day 3 and day 6 of the treatment and compared to vehicle.
as §1, with “human hair follicles were cultured in presence of TPPO (150” for “2-Hep (12.5”, “TPPO.” for “2-Hep.”

SMILES	expression of AXIN2 (human hair follicles [1]; 12.5 uM, FIG. 10)	expression of TGFB2 (human hair follicles [1]; 12.5 uM, FIG. 10)	hair cycle stage of hair follicles (anagen) vs vehicle (human hair follicles [2])	TGFB2 transcript (human hair follicles [1]; 150 uM, FIG. 12)	expression level of FGF7 (human hair follicles [1]; 150 uM, FIG. 12)	expression level of IGF1 (human hair follicles [1]; 150 uM, FIG. 12)	hair cycle stage of hair follicles (catagen) vs vehicle (human hair follicles [2]; 150 (unit not given), day 3 and day 6, FIG. 11)
CCCCCC(C)=O [2-Hep, 2-heptanone]	up-regulated	down-regulated	prolongs anagen				
Cc1cnc(C)cn1 [DMP, 2,5-dimethylpyrazine]			prolongs anagen				
O=P(c1ccccc1)(c1ccccc1)c1ccccc1 [TPPO, triphenylphosphine oxide]				up-regulated	significantly down-regulated	significantly down-regulated	promotes catagen
